Values of other authors in patent US9637723B2, “Generation of functional and durable endothelial cells from human amniotic fluid-derived cells” (Cornell University, priority 2012, dated 2017).
Read-outs that look alike come from different tables or passages of the source.

Target: T1, ALK5 (Homo sapiens, UniProt P36897)
T1 sequence (P36897 34-503): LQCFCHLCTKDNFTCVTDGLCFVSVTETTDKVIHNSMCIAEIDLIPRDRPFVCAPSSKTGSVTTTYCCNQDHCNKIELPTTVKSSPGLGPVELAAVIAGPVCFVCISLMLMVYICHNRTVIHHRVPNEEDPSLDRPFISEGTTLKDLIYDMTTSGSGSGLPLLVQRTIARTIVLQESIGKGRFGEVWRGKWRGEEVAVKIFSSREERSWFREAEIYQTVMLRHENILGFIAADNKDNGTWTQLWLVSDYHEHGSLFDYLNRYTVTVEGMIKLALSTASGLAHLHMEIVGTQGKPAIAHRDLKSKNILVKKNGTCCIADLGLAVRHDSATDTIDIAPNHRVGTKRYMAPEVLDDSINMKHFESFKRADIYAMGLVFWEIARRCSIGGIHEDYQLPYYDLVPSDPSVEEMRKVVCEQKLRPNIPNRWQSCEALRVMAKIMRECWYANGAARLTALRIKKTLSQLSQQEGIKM

[1] = as listed for compounds available through Tocris Bioscience

In the case of Cc1cccc(-c2nn(C(=S)Nc3ccccc3)cc2-c2ccnc3ccccc23)n1 [A 83-01, 3-(6-Methyl-2-pyridinyl)-N-phenyl-4-(4-quinolinyl)-1H-pyrazole-1-carbothioamide], the Function [1] is listed as “(Selective inhibitor of ALK5, ALK4 and ALK7)”.
For c1ccc(-c2n[nH]cc2-c2ccnc3ccccc23)nc1 [LY 364947, 4-[3-(2-Pyridinyl)-1H-pyrazol-4-yl]-quinoline], the Function is given as “(Selective inhibitor of ALK5)”.
For Cc1cccc(-c2n[nH]cc2-c2ccc3ncccc3n2)n1 [SJN 2511, 2-(3-(6-Methylpyridine-2-yl)-1H-pyrazol-4-yl)-1,5-naphthyridine], the Function [1] is given as “(Selective inhibitor of ALK5)”.
